Measurements from patent publication US20160200769A1, “Compound, Transitmycin, Effective Against Bacterial and Viral Pathogens” (INDIAN COUNCIL OF MEDICAL RESEARCH, priority 2013, published 2016).
*1 amine or outer side, *2 acyl side, *3 side chain or, on linkers, in order; H or OH if unused. Where a SMILES comes first, the peptide text is derived from it. Bridges are numbered along the chain shown (N, C = ends). Roman numbers before positions name the chains, in order. [ ]: non-standard residue; d: D form. Actinocin(1to9) = Cc1c2oc3c(C)ccc(C(=O)[*:2])c3nc-2c(C(=O)[*:1])c(N)c1=O; Pro(4-oxo) = O=C1CN[C@H](C(=O)O)C1; NMeV = CN[C@H](C(=O)O)C(C)C; Sar = CNCC(=O)O

Tested on: M. tuberculosis SHRE resistant
Experiment: microbe, parasite or virus in culture
Format: cell-based
Conditions: Mycobacterium tuberculosis

Cc1c2oc3c(C)ccc(C(=O)N[C@@H]4C(=O)N[C@@H](C(C)C)C(=O)N5CCC[C@H]5C(=O)N(C)CC(=O)N(C)[C@@H](C(C)C)C(=O)O[C@@H]4C)c3nc-2c(C(=O)N[C@@H]2C(=O)N[C@@H](C(C)C)C(=O)N3CC(=O)C[C@H]3C(=O)N(C)CC(=O)N(C)[C@@H](C(C)C)C(=O)O[C@@H]2C)c(N)c1=O [compound of formula (I), Transitmycin] (I: TV[Pro(4-oxo)][Sar][NMeV] / II: TVP[Sar][NMeV]; ester I:1-I:C, II:1-II:C; linker I:N-II:N via Actinocin(1to9))
MIC: 6.25 µg/mL
